According to ChEMBL document CHEMBL1126278, “New neplanocin analogues. 1. Synthesis of 6'-modified neplanocin A derivatives as broad-spectrum antiviral agents” (J Med Chem, 1992):
Values after ≈ are worked out from the molar mass of the structure shown.

Columns and labels:
[1] = test system: HEL; experiment: Inhibitory effect on replication of DNA virus TK-VZV (07-1) on HEL cell line.; format: functional, cell-based; conditions: Homo sapiens
[2] = test system: ESM; experiment: Inhibitory effect on replication of DNA virus HSV-2 (G) in ESM cell line; format: functional, cell-based
[3] = test system: Vero; experiment: Inhibitory effect on replication of RNA virus RNA synthesis in Vero cell line.; format: functional, cell-based; conditions: Chlorocebus sabaeus
[4] = test system: HeLa; experiment: Inhibitory effect on replication of RNA virus RSV in HeLa cell line; format: functional, cell-based; conditions: Homo sapiens
[5] = test system: Vero; experiment: (§1) Inhibitory effect on replication of RNA virus cell morphology in Vero cell line.; format: functional, cell-based; conditions: Chlorocebus sabaeus
[6] = test system: PRK; experiment: Inhibitory effect on replication of DNA virus Cell morphology on PRK cell line; format: functional, cell-based; conditions: Oryctolagus cuniculus
[7] = test system: Vero; experiment: Inhibitory effect on replication of RNA virus coxsB-4 in Vero cell line; format: functional, cell-based; conditions: Chlorocebus sabaeus
[8] = test system: Vero; experiment: Inhibitory effect on replication of RNA virus PV-3 in Vero cell line.; format: functional, cell-based; conditions: Chlorocebus sabaeus
[9] = test system: MDCK; experiment: cells; conditions: Canis lupus familiaris
[10] = test system: Vero; experiment: Inhibitory effect on replication of RNA virus protein synthesis in Vero cell line.; format: functional, cell-based; conditions: Chlorocebus sabaeus
[11] = test system: Vero; experiment: Inhibitory effect on replication of RNA virus TV in Vero cell line.; format: functional, cell-based; conditions: Chlorocebus sabaeus
[12] = test system: PRK; experiment: Inhibitory effect on replication of RNA virus VSV in PRK cell line.; format: functional, cell-based; conditions: Oryctolagus cuniculus
[13] = Inhibitory effect on replication of DNA virus HSV-2 (G) in PRK cell line.; format: functional, cell-based; conditions: Oryctolagus cuniculus
[14] = test system: Vero; experiment: Inhibitory effect on replication of RNA virus JV in Vero cell line.; format: functional, cell-based; conditions: Chlorocebus sabaeus
[15] = test system: ESM; experiment: Inhibitory effect on replication of DNA virus TK-HSV-1 (B2006) on ESM cell line.; format: functional, cell-based
[16] = test system: MDCK; experiment: Inhibitory effect on replication of RNA virus cell morphology in MDCK cell line.; format: functional, cell-based; conditions: Canis lupus familiaris
[17] = test system: HEL; experiment: Inhibitory effect on replication of DNA virus CMV (AD-169) on HEL cell line.; format: functional, cell-based; conditions: Homo sapiens
[18] = test system: HeLa; experiment: cells; conditions: Homo sapiens
[19] = test system: Vero; experiment: Inhibitory effect on replication of RNA virus SFV in Vero cell line; format: functional, cell-based; conditions: Chlorocebus sabaeus
[20] = test system: HEL; experiment: Inhibitory effect on replication of DNA virus TK-VZV (YSR) on HEL cell line.; format: functional, cell-based; conditions: Homo sapiens
[21] = test system: Vero; experiment: Inhibitory effect on replication of RNA virus measles on Vero cell line.; format: functional, cell-based; conditions: Chlorocebus sabaeus
[22] = test system: HEL; experiment: Inhibitory effect on replication of DNA virus Cell growth on HEL cell line.; format: functional, cell-based; conditions: Homo sapiens
[23] = test system: PRK; experiment: Inhibitory effect on replication of DNA virus VV on PRK cell line.; format: functional, cell-based; conditions: Oryctolagus cuniculus
[24] = test system: HEL; experiment: Inhibitory effect on replication of DNA virus VZV (Oka) on HEL cell line.; format: functional, cell-based; conditions: Homo sapiens
[25] = test system: ESM; experiment: Inhibitory effect on replication of RNA virus cell morphology in ESM cell line.; format: functional, cell-based
[26] = test system: ESM; experiment: Inhibitory effect on replication of DNA virus VV on ESM cell line.; format: functional, cell-based
[27] = test system: HEL; experiment: Inhibitory effect on replication of DNA virus CMV (Davis) on HEL cell line.; format: functional, cell-based; conditions: Homo sapiens
[28] = test system: MT4; experiment: Inhibitory effect on replication of RNA virus HIV-1 in MT-4 cell line.; format: functional, cell-based; conditions: Homo sapiens
[29] = Inhibitory effect on replication of DNA virus HSV-1 (KOS) in PRK cell line.; format: functional, cell-based; conditions: Oryctolagus cuniculus
[30] = test system: PRK; experiment: Inhibitory effect on replication of RNA virus cell morphology in PRK cell line.; format: functional, cell-based; conditions: Oryctolagus cuniculus
[31] = test system: MDCK; experiment: cells; conditions: Canis lupus familiaris; remark: listed apart in the source
[32] = test system: Vero; experiment: Inhibitory effect on replication of RNA virus SV in Vero cell line.; format: functional, cell-based; conditions: Chlorocebus sabaeus
[33] = test system: ESM; experiment: Inhibitory effect on replication of DNA virus Cell morphology on ESM cell line; format: functional, cell-based
[34] = test system: MT4; experiment: Inhibitory effect on replication of RNA virus cell growth in MT-4 cell line.; format: functional, cell-based; conditions: Homo sapiens
[35] = test system: Vero; experiment: Inhibitory effect on replication of RNA virus reo-1 in Vero cell line.; format: functional, cell-based; conditions: Chlorocebus sabaeus
[36] = test system: ESM; experiment: Inhibitory effect on replication of DNA virus TK-HSV-1 (VMW 1837) on ESM cell line.; format: functional, cell-based
[37] = test system: HeLa; experiment: Inhibitory effect on replication of RNA virus cell morphology in HeLa cell line.; format: functional, cell-based; conditions: Homo sapiens
[38] = test system: ESM; experiment: Inhibitory effect on replication of DNA virus HSV-1 (KOS) in ESM cell line; format: functional, cell-based
[39] = test system: MT4; experiment: Inhibitory effect on replication of RNA virus HIV-2 in MT-4 cell line.; format: functional, cell-based; conditions: Homo sapiens
[40] = test system: HeLa; experiment: Inhibitory effect on replication of RNA virus coxsB-4 in HeLa cell line.; format: functional, cell-based; conditions: Homo sapiens
[41] = test system: HEL; experiment: Inhibitory effect on replication of DNA virus VZV (YS) on HEL cell line.; format: functional, cell-based; conditions: Homo sapiens
[42] = test system: HeLa; experiment: Inhibitory effect on replication of RNA virus VSV in HeLa cell line.; format: functional, cell-based; conditions: Homo sapiens
[43] = test system: PRK; experiment: Inhibitory effect on replication of virus Cell morphology on PRK cell line; format: functional, cell-based; conditions: Oryctolagus cuniculus
[44] = test system: Vero; experiment: as §1; format: functional, cell-based, Homo sapiens; conditions: Chlorocebus sabaeus

Row | SMILES | IC50 [1] | IC50 [4] | IC50 [7] | IC50 [8] | IC50 [9] | IC50 [11] | IC50 [12] | IC50 [13] | IC50 [14] | IC50 [16] | IC50 [17] | IC50 [18] | IC50 [19] | IC50 [20] | IC50 [21] | IC50 [22] | IC50 [23] | IC50 [24] | IC50 [27] | IC50 [28] | other results
1 | C[C@H](O)C1=C[C@@H](n2cnc3c(N)ncnc32)[C@H](O)[C@@H]1O | 76 µg/mL (≈ 274 µM) | > 100 µg/mL | > 200 µg/mL | 100 µg/mL (≈ 361 µM) | > 100 µg/mL | 55 µg/mL (≈ 198 µM) | 70 µg/mL (≈ 252 µM) | > 200 µg/mL | 45 µg/mL (≈ 162 µM) | > 100 µg/mL | 15 µg/mL (≈ 54.1 µM) | > 400 µg/mL | > 400 µg/mL | 39 µg/mL (≈ 141 µM) | > 100 µg/mL | 132 µg/mL (≈ 476 µM) | 70 µg/mL (≈ 252 µM) | 100 µg/mL (≈ 361 µM) | 9 µg/mL (≈ 32.5 µM) | > 100 µg/mL | IC50 [2]: > 400 µg/mL; IC50 [3]: 36 µg/mL (≈ 130 µM); IC50 [5]: > 400 µg/mL; IC50 [6]: > 400 µg/mL; IC50 [10]: > 190 µg/mL; IC50 [15]: > 400 µg/mL; IC50 [25]: > 400 µg/mL; IC50 [26]: 40 µg/mL (≈ 144 µM); IC50 [29]: > 400 µg/mL; IC50 [30]: > 400 µg/mL; IC50 [31]: > 100 µg/mL; IC50 [32]: 150 µg/mL (≈ 541 µM); IC50 [33]: > 400 µg/mL; IC50 [34]: > 100 µg/mL; IC50 [35]: 40 µg/mL (≈ 144 µM); IC50 [36]: > 400 µg/mL; IC50 [37]: > 400 µg/mL; IC50 [38]: > 400 µg/mL; IC50 [39]: > 100 µg/mL; IC50 [40]: > 400 µg/mL
2 | CSCC1=C[C@@H](n2cnc3c(N)ncnc32)[C@H](O)[C@@H]1O | 2 µg/mL (≈ 6.82 µM) | > 40 µg/mL | > 200 µg/mL | > 200 µg/mL | > 100 µg/mL | 40 µg/mL (≈ 136 µM) | 70 µg/mL (≈ 239 µM) | > 400 µg/mL | 40 µg/mL (≈ 136 µM) | > 100 µg/mL | 1.5 µg/mL (≈ 5.11 µM) | > 200 µg/mL | > 400 µg/mL | 5 µg/mL (≈ 17 µM) | 40 µg/mL (≈ 136 µM) | 9 µg/mL (≈ 30.7 µM) | 70 µg/mL (≈ 239 µM) | 2.5 µg/mL (≈ 8.52 µM) | 1 µg/mL (≈ 3.41 µM) | > 40 µg/mL | IC50 [41]: 2 µg/mL (≈ 6.82 µM); IC50 [29]: > 400 µg/mL; IC50 [30]: > 400 µg/mL; IC50 [31]: > 100 µg/mL; IC50 [32]: > 200 µg/mL; IC50 [34]: 60 µg/mL (≈ 205 µM); IC50 [35]: 40 µg/mL (≈ 136 µM); IC50 [37]: > 400 µg/mL; IC50 [42]: > 200 µg/mL; IC50 [43]: > 400 µg/mL; IC50 [39]: > 40 µg/mL; IC50 [44]: > 400 µg/mL; IC50 [40]: > 200 µg/mL
